From ChEMBL document CHEMBL3769356, “Rational design in search for 5-phenylhydantoin selective 5-HT7R antagonists. Molecular modeling, synthesis and biological evaluation” (Eur J Med Chem, 2016) come the findings set out here.

The target of data set [1] is T1, 5-hydroxytryptamine receptor 7 (Homo sapiens, UniProt P34969). The format is functional, cell-based, HEK293.
For data set [2], the species on record is Homo sapiens. The data set can be described thus: Selectivity ratio of Ki for human 5-HT1A receptor to Ki for human 5-HT7 receptor.
For data set [3], the species on record is Homo sapiens. The data set can be described thus: Selectivity ratio of Ki for human dopamine D2L receptor to Ki for human 5-HT7 receptor.
Data set [4] deals with T1, 5-hydroxytryptamine receptor 7. The data set can be described thus: Agonist activity at human 5-HT7 receptor expressed in HEK293 cells assessed as increase in cAMP level at 10 uM after 15 mins by HTRF assay. The format is functional, cell-based. On the technique in general: Cyclic AMP is a second messenger, typically raised through Gs and lowered through Gi signalling.

Data set [5] has the same target. The data set can be described thus: Displacement of [3H]-5-CT from human 5-HT7 receptor expressed in HEK293 cells. The format is cell-based. In general terms: In a radioligand displacement assay an active substance lowers the binding of a labelled ligand.
For data set [6], the target named is D(2) dopamine receptor (Homo sapiens, UniProt P14416). The data set can be described thus: Displacement of [3H]-Raclopride from human dopamine D2L receptor expressed in HEK293 cells. The format is cell-based.
D(2) dopamine receptor, sequence (P14416 whole entry): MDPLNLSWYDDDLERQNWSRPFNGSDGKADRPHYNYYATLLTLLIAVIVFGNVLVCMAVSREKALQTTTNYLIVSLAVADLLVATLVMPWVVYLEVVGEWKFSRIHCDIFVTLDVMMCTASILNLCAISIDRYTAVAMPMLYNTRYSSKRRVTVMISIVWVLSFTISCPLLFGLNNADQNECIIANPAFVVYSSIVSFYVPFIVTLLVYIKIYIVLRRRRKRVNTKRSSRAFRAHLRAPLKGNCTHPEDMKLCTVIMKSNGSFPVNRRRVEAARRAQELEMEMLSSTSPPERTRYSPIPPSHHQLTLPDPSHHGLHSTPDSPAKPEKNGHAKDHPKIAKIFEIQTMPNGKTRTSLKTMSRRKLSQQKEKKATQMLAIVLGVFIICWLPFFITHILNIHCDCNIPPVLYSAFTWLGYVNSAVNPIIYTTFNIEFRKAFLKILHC
Data set [7] has as its target T2, 5-hydroxytryptamine receptor 1A (Homo sapiens, UniProt P08908).
T2 sequence (P08908 whole entry): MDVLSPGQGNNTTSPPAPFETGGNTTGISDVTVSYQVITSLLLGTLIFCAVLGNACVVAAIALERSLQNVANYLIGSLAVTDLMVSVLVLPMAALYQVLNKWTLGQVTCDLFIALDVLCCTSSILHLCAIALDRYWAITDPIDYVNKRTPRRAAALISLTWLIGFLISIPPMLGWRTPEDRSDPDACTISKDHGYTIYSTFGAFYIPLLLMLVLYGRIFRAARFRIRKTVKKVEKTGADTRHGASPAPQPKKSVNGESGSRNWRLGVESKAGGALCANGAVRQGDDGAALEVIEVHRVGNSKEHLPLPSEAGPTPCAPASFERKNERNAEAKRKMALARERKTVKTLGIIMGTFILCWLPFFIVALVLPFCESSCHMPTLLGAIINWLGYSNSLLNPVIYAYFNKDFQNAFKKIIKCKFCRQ
The data set can be described thus: Displacement of [3H]-8-OH-DPAT from human 5-HT1A receptor expressed in HEK293 cells. The format is cell-based.

Data set [8] has as its target T1, 5-hydroxytryptamine receptor 7. The data set can be described thus: Antagonist activity at human 5-HT7 receptor expressed in HEK293 cells assessed as inhibition of 5-CT-induced cAMP production at 10 uM preincubated for 15 mins followed by 5-CT addition measured after 15 mins by HTRF assay. The format is functional, cell-based.
Data set [9] concerns the target CYP3A4 (Homo sapiens, UniProt P08684). The data set can be described thus: Inhibition of recombinant human CYP3A4 assessed as remaining activity at 25 uM by luminescence -based microplate reader assay. It counts as ADME. Particulars: read-out: Activity.
For data set [10], the system named is Liver microsome. The data set can be described thus: Drug level in recombinant human liver microsomes treated with 5-(4-fluorophenyl)-3-(2-hydroxy-3-(4-(2-methoxyphenyl)piperazin-1-yl)propyl)-5-methylimidazolidine-2,4-dione at 50 uM after 120 mins by UPLC-MS/MS analysis. The following applies: 2 h. The format is ADME.
For data set [11], the system named is Liver microsome. The data set can be described thus: Retention time of the compound in recombinant human liver microsomes treated with 5-(4-fluorophenyl)-3-(2-hydroxy-3-(4-(2-methoxyphenyl)piperazin-1-yl)propyl)-5-methylimidazolidine-2,4-dione at 50 uM after 120 mins by UPLC-MS/MS analysis. The format is ADME. Particulars: 2 h.

Calls of active or inactive are those of the source. No cut-off for these calls is given here.

T1 sequence (P34969 whole entry): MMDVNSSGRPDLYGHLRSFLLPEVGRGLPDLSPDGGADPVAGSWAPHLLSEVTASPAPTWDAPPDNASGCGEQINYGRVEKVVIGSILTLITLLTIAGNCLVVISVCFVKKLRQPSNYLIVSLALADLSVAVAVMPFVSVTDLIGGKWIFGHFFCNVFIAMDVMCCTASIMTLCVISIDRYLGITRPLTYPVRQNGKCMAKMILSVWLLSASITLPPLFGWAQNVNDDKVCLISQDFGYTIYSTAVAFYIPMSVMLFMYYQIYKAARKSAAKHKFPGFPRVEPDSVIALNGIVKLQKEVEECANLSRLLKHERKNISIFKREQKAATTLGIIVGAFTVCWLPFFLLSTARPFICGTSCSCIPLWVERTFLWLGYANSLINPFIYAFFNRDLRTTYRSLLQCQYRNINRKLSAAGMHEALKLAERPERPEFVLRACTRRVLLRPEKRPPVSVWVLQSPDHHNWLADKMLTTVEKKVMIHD
CYP3A4, sequence (P08684 whole entry): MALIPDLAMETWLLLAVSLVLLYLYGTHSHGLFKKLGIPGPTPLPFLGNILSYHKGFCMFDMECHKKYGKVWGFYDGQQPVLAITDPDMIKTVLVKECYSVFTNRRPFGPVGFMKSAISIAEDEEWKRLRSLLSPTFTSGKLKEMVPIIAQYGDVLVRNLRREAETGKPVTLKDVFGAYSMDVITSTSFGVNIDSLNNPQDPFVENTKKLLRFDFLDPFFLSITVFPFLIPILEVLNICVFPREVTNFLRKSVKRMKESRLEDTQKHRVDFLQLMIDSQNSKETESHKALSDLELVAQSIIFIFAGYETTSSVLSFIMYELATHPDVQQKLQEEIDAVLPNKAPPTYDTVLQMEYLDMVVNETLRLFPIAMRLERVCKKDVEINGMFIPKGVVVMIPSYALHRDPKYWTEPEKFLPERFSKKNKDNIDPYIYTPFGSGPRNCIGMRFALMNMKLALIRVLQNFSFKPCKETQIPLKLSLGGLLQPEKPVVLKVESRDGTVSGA

Consider `CC1(c2ccc(F)cc2)NC(=O)N(CC(O)CN2CCN(C(c3ccccc3)c3ccccc3)CC2)C1=O` (centres undefined), for which half-maximal inhibition in [1] (IC50) was put at 1810 nM. The Ratio Ki in data set [2] came out at 71; in [3], 3. Also, the Activity entry in data set [4] is “inactive”.
For `CC1(c2ccc(F)cc2)NC(=O)N(CC(O)CN2CCN(c3ccccc3)CC2)C1=O` (centres undefined), the Ki came to 223 nM in data set [5], 2910 nM in [6] and 2730 nM in data set [7]. Moreover, the Ratio Ki in data set [2] turned out to be 12; in [3] it was 13. For the same compound, the Activity result in [4] was “inactive”. Also, the inhibition in data set [8] worked out at 18%.
`CCOc1ccccc1N1CCN(CC(O)CN2C(=O)NC(C)(c3ccc(F)cc3)C2=O)CC1` (centres undefined): the figures for the inhibitory constant (Ki) in [5], in [6] and in [7] were 10 nM, 127 nM and 98 nM, respectively. In data set [1], this compound came in with a concentration for half-maximal inhibition (IC50) of 81 nM. In addition, the Ratio Ki is 10 in data set [2] and 13 in data set [3]. For the same compound, the Activity entry in data set [4] was “inactive”.
As to `CC1(c2ccc(F)cc2)NC(=O)N(CC(O)CN2CCN(c3ccccc3Cl)CC2)C1=O` (centres undefined), the Ki in data set [5] came out at 47 nM; in data set [6], 839 nM; in data set [7], 397 nM. Moreover, the Ratio Ki in [2] is 8; in data set [3], 18. The Activity result in [4] is “inactive”. Moreover, the inhibition in data set [8] worked out at 30%.
As for `COc1cccc(N2CCN(CC(O)CN3C(=O)NC(C)(c4ccc(F)cc4)C3=O)CC2)c1` (centres undefined), the Ki in data set [5] is 89 nM; in [6] it was 5190 nM; in data set [7], 2970 nM. In data set [1], the concentration for half-maximal inhibition (IC50) worked out at 5940 nM. Further, the values for the Ratio Ki in data set [2] and in data set [3] were 33 and 58, respectively. Moreover, in [4], the Activity result is “inactive”.
In the case of `CC1(c2ccc(F)cc2)NC(=O)N(CC(O)CN2CCN(c3ccccc3C#N)CC2)C1=O` (centres undefined), the inhibition constant (Ki) came out at 14 nM in [5], 931 nM in [6] and 319 nM in data set [7]. Half-maximal inhibition in data set [1] (IC50) was put at 343 nM. Moreover, the Ratio Ki was 23 in [2] and 67 in [3]. Moreover, the Activity result in data set [4] is “inactive”.
On to `CC1(c2ccc(F)cc2)NC(=O)N(CC(O)CN2CCN(c3ccccc3F)CC2)C1=O` (centres undefined), for which the Ki was determined as 234 nM in data set [5], 1710 nM in [6] and 1650 nM in [7]. In addition, the Ratio Ki in data set [2] and in [3] was 7 each time. In data set [4], the Activity entry is “inactive”. In data set [8], the inhibition came out at 6%.
For the compound `COc1ccccc1N1CCN(CC(O)CN2C(=O)NC(C)(c3ccc(F)cc3)C2=O)CC1` (centres undefined), in [9], the activity at 25 µM came to 50%.
As for `NCCc1c[nH]c2ccc(C(N)=O)cc12`, the Activity entry in [4] is “Active”.
In the case of `Cc1ccc(N2CCN(CC(O)CN3C(=O)NC(C)(c4ccc(F)cc4)C3=O)CC2)cc1C` (centres undefined), the Ki in data set [5] was 177 nM; in [6], 2260 nM; in data set [7] it was 1000 nM. For the same compound, the Ratio Ki worked out at 6 in [2] and 13 in data set [3]. For the same compound, the Activity entry in [4] was “inactive”. For the same compound, in data set [8], the inhibition came out at 19%.
With `CC1(c2ccc(F)cc2)NC(=O)N(CC(O)CN2CCN(c3ccc(F)cc3)CC2)C1=O` (centres undefined), the results for the Ki in [5], in data set [6] and in [7] were 837 nM, 5640 nM and 6860 nM, respectively. The Ratio Ki is 8 in data set [2] and 7 in data set [3]. Also, in [4], the Activity result is “inactive”. Also, the inhibition in [8] was 12%.
In the case of `CC1(c2ccc(F)cc2)NC(=O)N(CC(O)CN2CCN(c3ccc(F)cc3F)CC2)C1=O` (centres undefined), the results for the Ki in data set [5], in data set [6] and in data set [7] were 1190 nM, 6790 nM and 9170 nM, respectively. Besides, the Ratio Ki in [2] came out at 8; in data set [3], 4. Moreover, in [4], the Activity result is “inactive”. The inhibition in data set [8] was 9%.
With `Cc1ccc(C)c(N2CCN(CC(O)CN3C(=O)NC(C)(c4ccc(F)cc4)C3=O)CC2)c1` (centres undefined), the figures for the Ki in data set [5], in [6] and in data set [7] were 56 nM, 1810 nM and 1300 nM, respectively. Moreover, half-maximal inhibition in data set [1] (IC50) required 1010 nM. Besides, the results for the Ratio Ki in data set [2] and in [3] were 23 and 32, respectively. Moreover, the Activity result in data set [4] was “inactive”.
On to `CC1(c2ccc(F)cc2)NC(=O)N(CC(O)CN2CCN(c3ccccc3O)CC2)C1=O` (centres undefined), for which the Drug metabolism entry in data set [10] is listed as “metabolite_detected”. The Retention_time in data set [11] is listed as 3.77 min.
Turning to `CC1(c2ccc(F)cc2)NC(=O)N(CC(O)CN2CCN(c3cccc(Cl)c3Cl)CC2)C1=O` (centres undefined), the inhibitory constant (Ki) was found to be 17 nM in data set [5], 302 nM in [6] and 59 nM in [7]. In data set [1], this compound gave an IC50 of 1390 nM. Also, the Ratio Ki in data set [2] is 3; in data set [3], 18. In addition, the Activity entry in [4] is “inactive”.
In the case of `CC1(c2ccc(F)cc2)NC(=O)N(CC(O)CN2CCN(c3ccc(Cl)cc3)CC2)C1=O` (centres undefined), the Ki came to 908 nM in data set [5], 4260 nM in data set [6] and 5300 nM in [7]. Further, the results for the Ratio Ki in [2] and in data set [3] were 6 and 5, respectively. Moreover, in [4], the Activity result was “inactive”. Also, the inhibition in data set [8] was found to be 16%.
On to `CC1(c2ccc(F)cc2)NC(=O)N(CC(O)CN2CCN(c3ccc(Cl)c(Cl)c3)CC2)C1=O` (centres undefined), for which the Ki in data set [5] amounted to 141 nM; in [6], 1980 nM; in data set [7], 821 nM. The IC50 in data set [1] is 24000 nM. Moreover, the Ratio Ki in data set [2] came out at 6; in data set [3], 14. Moreover, in data set [4], the Activity result is “inactive”.

In general, IC50 refers to the concentration needed to halve the response being measured. A lower IC50 goes with higher potency. A word on the Ki: it is a dissociation constant, usually derived from enzyme kinetics or from competition with a known ligand. Higher therefore signals weaker binding. The inhibition is the relative decrease from the control value, in per cent.
